# Source: article PMC7429848, “XJB-5-131 inhibited ferroptosis in tubular epithelial cells after ischemia−reperfusion injury” (Cell Death & Disease, 2020)
# Key:
# [1] = Whole-body and organ fluorescence imaging and kidney frozen sections after BODIPY-FL-XJB-5-131 injection; assay type: in vivo; conditions: mice, BODIPY-FL-labeled XJB-5-131 i.v.
# Procedure: (§1) The mice were sacrificed at 0.25, 0.5, 1, 2, 4 and 6 h after i.v. bolus administration of XJB-5-131. […] The concentration of XJB-5-131 in the liver was not obtained. The half-life (t1/2) was approximately 2 h. The area under the concentration–time curve (AUC0−6 h) of plasma was 322.7 µg·h/ml. The AUC0−6 h in the kidney was approximately […] compared with that of the AUC0−6 h in the brain (234.7 µg·h/g versus 4.1 µg·h/g). […] Moreover, the concentration in the kidney was almost close to the plasma concentration and lasted much longer, which predicted the therapeutic value of XJB-5-131 in kidney diseases. Next, we intravenously injected 3 mg/kg BODIPY-FL-XJB-5-131 into mice to explore the distribution of XJB-5-131 in the kidney, and whole-body fluorescence was analyzed at 0 and 30 min after injection.
# Fig. 5 Pharmacokinetics and distribution analysis of XJB-5-131 in vivo and in vitro. a The structure of XJB-5-131. b The tissue concentrations of XJB-5-131 in mice. Mice were injected with XJB-5-131 and sacrificed after 0.25, 0.5, 1, 2, 4 and 6 h. Plasma, kidney, liver and brain were collected for in vivo-based pharmacokinetic assays by LC-MS/MS. […] Whole-body fluorescence imaging was performed at 0 and 30 min, and the fluorescence intensity of various organs (heart, kidney, liver and brain) was measured after 30 min. […]
# [2] = set-up: method as in PMID 26415224; conditions: cited from earlier work
# renal I/R injury [3] = test: Renal I/R model: kidney injury and TEC repair (gross appearance, PAS, KIM-1, Ki67, Sox9); assay type: in vivo; conditions: mice
# Procedure: (§2) After a minimum of 7 days of acclimation, the mice were anesthetized with a 1% sodium pentobarbital solution (6 mL/kg) by intraperitoneal injection and then placed in a prone position to maintain their body temperature at 36.8–37.2 °C during surgery. After a unilateral dorsal incision to expose the kidneys, the renal artery was occluded using a microvascular clamp (RoBoz Surgical Instrument Co, Gaithersburg, MD, USA) for 30 min. After that, the clamps were removed, and the animals were allowed to recover with free access to food and water.
# (§3) To study the effects of XJB-5-131 on I/R injury, the mice were randomly allocated into the Vehi group and XJB group. The mice were injected intraperitoneally (i.p.) with XJB-5-131 (10 mg/kg) or the respective control 30 min prior to ischemia and for 3 consecutive days after surgery.
# Paraffin-embedded renal sections (4 μm) were subjected to PAS staining to detect morphological changes in the cortex and medulla, and were scored in a blinded fashion using a semiquantitative design as previously reported.
# (§4) Paraffin-embedded renal sections (4 μm) were deparaffinized in xylene, rehydrated in graded alcohol and blocked with 10% goat serum for 30 min. Mouse monoclonal anti-GSDMD (1:50, Santa), mouse monoclonal anti-4-HNE (1:100, R&D), rabbit polyclonal anti-MLKL, goat polyclonal anti-KIM-1 (1:800, R&D), rabbit polyclonal anti-Ki67 (1:100, Abcam), rabbit polyclonal anti-ACSL4 (1:200, Abcam), rabbit polyclonal anti-CD3 (1:100, Dako), rabbit polyclonal anti-ly6G (1:100, Abcam), rat polyclonal anti-F4/80 (1:50, Abcam), and rabbit polyclonal anti-Sox9 (1:100, Abcam) primary antibodies were incubated at 4 °C overnight and subsequently visualized with HRP-conjugated secondary antibody for IHC and fluorescently labeled secondary antibodies for IF. Staining was carefully quantified in each slide by capturing 15 randomly chosen fields in a blind manner, and the data were analyzed using Image Pro Plus software (Media Cybernetics, USA).
# renal I/R injury [4] = test: Renal I/R model: intrarenal inflammatory cell infiltration and proinflammatory cytokine mRNA; assay type: in vivo; conditions: mice, unilateral I/R, 10 mg/kg i.p., vs I/R group
# Procedure: as §2, §3, §4
# Total RNA was extracted from kidney tissue using TRIzol reagent (Takara, Japan). Real-time PCR was carried out using a LightCycler 480 system (Roche, Pleasanton, CA, USA). Relative mRNA for RANTES, MCP-1, IL-6 and GAPDH was quantified in triplicate by SYBR Green RT-PCR.
# RIPK3, MLKL, GSDMD = test: Renal I/R model: necroptosis and pyroptosis markers by western blot; assay type: in vivo; conditions: mice, unilateral I/R, with or without XJB-5-131
# Procedure: as §2, §3
# (§5) Renal tissues were lysed in RIPA lysis buffer containing protease inhibitor. Equal amounts of proteins (50 μg) were loaded and separated by 10% SDS-PAGE. The proteins were transferred onto polyvinylidene fluoride membranes (Millipore, USA). The membranes were blocked with 5% skimmed milk in Tris Buffered saline Tween (TBST) for 1 h at room temperature and were then incubated with appropriate primary antibodies against GPX4 (1:10000, Abcam), ACSL4 (1:10000, Abcam, UK), MLKL (1:1000, Abgent), p-MLKL (1:1000, Abcam), RIPK3 (1:1000, ABclonal), p-RIPK3 (1:1000, Abcam), GSDMD (1:1000, Santa) and GAPDH (1:5000, ABclonal) at 4 °C overnight. The blots were washed with TBST for 5 min and incubated with HRP-conjugated secondary antibodies (1:5000; ABclonal) for 1 h. After washing with TBST, the blots were visualized by the enhanced chemiluminescence method (ECL, Bio-Rad). The relative intensity of the target band was normalized to the corresponding loading control intensity and quantified by using ImageJ (NIH, USA).
# HT-1080 cells = system: HT-1080 cells; set-up: method as in PMID 27725964; conditions: cited from earlier work
# ferroptosis in TECs = test: Renal I/R model: ferroptosis readouts (mitochondrial morphology, GSH-Px, MDA, 4-HNE, GPX4, ACSL4); assay type: in vivo; conditions: mice, unilateral I/R, 10 mg/kg i.p.
# Procedure: as §2, §3
# The renal cortices were cut into small pieces (1 mm^3) and fixed with 2.5% glutaraldehyde. Then the samples were dehydrated and embedded. Ultra-thin sections were stained and observed with a transmission electron microscope (Tecnai G^2 20 TWIN, FEI, USA).
# as §4
# The levels of GSH-Px in kidneys were determined using GSH-Px assay kit, respectively (Beyotime China) in line with the manufacturer’s instructions.
# Quantification of MDA levels in kidney tissue after I/R or sham operation was performed by using an MDA assay kit (Beyotime).
# as §5
# [5] = In vivo-based pharmacokinetic model, LC-MS/MS of plasma and tissue homogenates; set-up: species or system mice; conditions: for AUC0–6 h / AUC0–∞ / MRT0-6h / MRT0–∞ / t1/2 / tmax / Cmax: 3 mg/kg i.v. bolus
# Procedure: as §1
# Mice were injected with 3 mg/kg XJB-5-131 and were sacrificed at 0.25, 0.5, 1, 2, 4 and 6 h after injection. Plasma, kidney, liver and brain were collected to assess the XJB-5-131 concentration by LC-MS/MS. For plasma samples, an aliquot of 8 µL was protein precipitated with 160 µL IS, and the mixture was vortex-mixed and centrifuged at 12,000 × g for 15 min at 4 °C. Seventy microliters of supernatant was transferred to a 96-well plate and centrifuged for 5 min at 3220 × g and 4 °C, and then 6 µL of supernatant was directly injected for LC-MS/MS analysis. For tissue samples, tissue homogenates (kidney, brain and liver) were prepared by homogenizing tissue with threefold volume of homogenization solution (MeOH/15 mM PBS = 1:2). An aliquot of 20 µL was protein precipitated with 400 µL IS, and the mixture was vortex-mixed and centrifuged at 12,000 rpm for 15 min at 4 °C. Seventy microliters of supernatant was transferred to a 96-well plate and centrifuged for 5 min at 3220 × g and 4 °C, and then 6 µL of supernatant was directly injected for LC-MS/MS analysis.
# [6] = stated without reference; cited from earlier work
# [7] = unilateral I/R, 10 mg/kg i.p., day 3, vs I/R group
smiles,measurement,setting,value
CC(C)C[C@@H](/C=C/[C@H](Cc1ccccc1)C(=O)N1CCC[C@H]1C(=O)N[C@H](C(=O)N[C@@H](CCCNC(=O)OCc1ccccc1)C(=O)NC1CC(C)(C)N([O])C(C)(C)C1)C(C)C)NC(=O)OC(C)(C)C [XJB-5-131],cell type distribution in the kidney (fluorescence microscopy of frozen sections),[1],majority of XJB-5-131-positive cells were kidney TECs
same,conversion into XJB-hydroxylamine in situ,[2],easily converted into XJB-hydroxylamine
same,benefit at 10mg/kg versus 2.5mg/kg or 20mg/kg,"renal I/R injury [3]; I/R, day 3, PAS staining",better beneficial than other doses
same,kidney injuries and casts (PAS staining),"renal I/R injury [3]; I/R, day 3, vs I/R+Vehicle",ameliorated
same,KIM-1 expression (immunofluorescent staining),renal I/R injury [3]; [7],decreased
same,Sox9 in TECs,renal I/R injury [3]; [7],dramatically activated
same,congestion area at the junction of cortex and medulla,renal I/R injury [3]; [7],reduced
same,loss of tubules (PAS tubular damage),renal I/R injury [3]; [7],alleviated
same,number of Ki67-positive nuclei in TECs,renal I/R injury [3]; [7],much higher number
same,ratio of injured kidney weight to body weight,renal I/R injury [3]; [7],decreased
same,IL-6 mRNA expression in kidney,renal I/R injury [4],suppressed
same,MCP-1 mRNA expression in kidney,renal I/R injury [4],suppressed
same,RANTES mRNA expression in kidney,renal I/R injury [4],suppressed
same,"infiltration of inflammatory cells in the kidney (ly6G, CD3, F4/80 positive cells)",renal I/R injury [4],reduced
same,cleavage of GSDMD (GSDMD-N),"RIPK3, MLKL, GSDMD",no statistically significant difference
same,expression of phosphorylated MLKL,"RIPK3, MLKL, GSDMD",no difference
same,expression of phosphorylated RIPK3,"RIPK3, MLKL, GSDMD",no difference
same,effect on ferroptosis,HT-1080 cells,anti-ferroptotic effects
same,4-HNE staining,ferroptosis in TECs,less accumulation of lipid peroxidation
same,I/R-induced increase in ACSL4 expression (western blot),ferroptosis in TECs,inhibited
same,renal GPX4 expression (western blot),ferroptosis in TECs,significantly improved
same,resistance of mitochondria in TECs to I/R injury (electron microscopy),ferroptosis in TECs,increased resistance
same,GSH-Px level in kidney,ferroptosis in TECs; day 3,increased levels
same,MDA level in kidney,ferroptosis in TECs; day 3,decreased levels
same,AUC0–6 h,"[5]; mice, brain",4052 ng·h/g
same,AUC0–∞,"[5]; mice, brain",4859 ng·h/g
same,MRT0-6h,"[5]; mice, brain",3.14 h
same,MRT0–∞,"[5]; mice, brain",1.98 h
same,t1/2,"[5]; mice, brain",2.07 h
same,tmax,"[5]; mice, brain",0.25 h
same,Cmax,"[5]; mice, brain and plasma",2353 ng/g
same,AUC0–6 h,"[5]; mice, kidney","234,683 ng·h/g"
same,AUC0–∞,"[5]; mice, kidney","255,150 ng·h/g"
same,Cmax,"[5]; mice, kidney","261,067 ng/g"
same,MRT0-6h,"[5]; mice, kidney",2.05 h
same,MRT0–∞,"[5]; mice, kidney",1.42 h
same,t1/2,"[5]; mice, kidney",2.23 h
same,tmax,"[5]; mice, kidney",0.25 h
same,AUC0–6 h,"[5]; mice, plasma","322,745 ng·h/mL"
same,AUC0–∞,"[5]; mice, plasma","364,783 ng·h/mL"
same,Cmax,"[5]; mice, plasma","186,667 ng/mL"
same,MRT0-6h,"[5]; mice, plasma",2.65 h
same,t1/2,"[5]; mice, plasma",1.77 h
same,tmax,"[5]; mice, plasma",0.25 h
same,half-life (t1/2),"[5]; mice, i.v.",approximately 2 h
same,plasma-tissue drug transfer,"[5]; mice, i.v.",fast
same,plasma stability,"[5]; mice, i.v., in vivo PK",superior plasma stability
same,AUC0−6 h,"[5]; mice, i.v., kidney",234.7 µg·h/g
same,calculated maximal concentration (Cmax),"[5]; mice, i.v., kidney",261.1 µg/g
same,AUC0−6 h,"[5]; mice, i.v., kidney and brain",4.1 µg·h/g
same,AUC0−6 h,"[5]; mice, i.v., plasma",322.7 µg·h/mL
same,calculated maximal concentration (Cmax),"[5]; mice, i.v., plasma",186.7 µg/mL
same,time of Cmax after vein injection,"[5]; mice, i.v., plasma, kidney and brain",15 min
same,stability in liver homogenate,"[5]; mouse liver homogenate, not detected by LC-MS/MS",unstable
"CCOC(=O)c1ccc(NC2CCCCC2)c(N)c1 [Fer-1, ferrostatin-1]",stability in plasma,[6],poor
